Earlier results, collected in patent US20070142447A1, “Veterinary composition comprising an arylpyrazole and a nitroenamine with enhanced antiparasitic activity” (Intervet International B.V., priority 2004, published 2007).
Like-named read-outs stand apart in the source and are kept apart here.

What was measured:
[1] = cats
fleas = details: after 72 hours
[2] = dogs

## CCN(Cc1ccc(Cl)nc1)/C(=C/[N+](=O)[O-])NC [nitenpyram, (E)-N-(6-chloro-pyridin-3-ylmethyl)-N-ethyl-N-methyl-2-methyl-2-nitrovinylidenediamine]
[1]
  half-life in the blood: 7.7 h
  mean residence time: 10.2 h
fleas
  lethality of nitenpyram levels in host blood to fleas: not lethal to fleas
[2]
  half-life in the blood: 2.8 h
  mean residence time: 4.1 h
